For eleven compounds, IC50 results are on record in ChEMBL document CHEMBL4422610, “HDAC as onco target: Reviewing the synthetic approaches with SAR study of their inhibitors” (Eur J Med Chem, 2018).

The target in one test is T1, Histone deacetylase 4 (Homo sapiens, UniProt P56524). As to the kind of experiment: Inhibition of HDAC4 (unknown origin).
T1 sequence (P56524 whole entry): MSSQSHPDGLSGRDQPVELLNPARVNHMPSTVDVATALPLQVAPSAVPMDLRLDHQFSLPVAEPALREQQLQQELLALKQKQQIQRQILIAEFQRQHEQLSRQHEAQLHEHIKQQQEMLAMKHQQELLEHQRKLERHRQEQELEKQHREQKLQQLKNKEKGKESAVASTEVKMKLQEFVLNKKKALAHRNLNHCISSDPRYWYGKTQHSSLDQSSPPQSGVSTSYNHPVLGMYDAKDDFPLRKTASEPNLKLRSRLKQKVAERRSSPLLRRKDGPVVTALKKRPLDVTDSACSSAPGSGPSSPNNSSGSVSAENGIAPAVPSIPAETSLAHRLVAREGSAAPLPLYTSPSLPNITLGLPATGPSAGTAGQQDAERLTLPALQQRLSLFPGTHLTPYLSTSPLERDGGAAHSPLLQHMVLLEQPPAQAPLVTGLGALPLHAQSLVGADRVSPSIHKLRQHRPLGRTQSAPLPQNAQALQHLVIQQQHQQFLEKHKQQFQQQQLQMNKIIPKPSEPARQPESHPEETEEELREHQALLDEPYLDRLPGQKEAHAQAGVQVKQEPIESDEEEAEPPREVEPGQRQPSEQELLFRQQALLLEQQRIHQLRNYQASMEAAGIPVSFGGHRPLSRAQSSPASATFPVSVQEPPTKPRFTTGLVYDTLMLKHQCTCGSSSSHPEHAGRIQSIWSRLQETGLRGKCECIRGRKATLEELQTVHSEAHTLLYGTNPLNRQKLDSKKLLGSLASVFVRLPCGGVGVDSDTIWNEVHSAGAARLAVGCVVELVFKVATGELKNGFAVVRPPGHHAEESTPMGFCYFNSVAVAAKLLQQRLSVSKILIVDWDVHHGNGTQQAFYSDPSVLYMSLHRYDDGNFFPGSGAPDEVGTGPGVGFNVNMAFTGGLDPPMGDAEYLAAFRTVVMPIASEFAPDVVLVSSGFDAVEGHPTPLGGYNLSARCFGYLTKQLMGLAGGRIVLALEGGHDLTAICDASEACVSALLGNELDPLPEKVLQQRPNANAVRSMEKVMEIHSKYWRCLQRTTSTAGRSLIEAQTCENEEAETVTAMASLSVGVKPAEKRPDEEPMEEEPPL
Settings: not given
The term IC50 denotes the midpoint of a concentration-inhibition curve. `CC(=O)SCCCCCC(NC(=O)OCc1ccccc1)C(=O)Nc1cccc2cccnc12` (centres undefined) showed an IC50 of 18 nM.

The test system of a further test is K562. Put plainly: cells. The settings on record: Homo sapiens, K562, 48 h.
As for `CC1CCCCC12NC(=O)[C@H](CCCCCC(=O)NO)NC(=O)[C@H]1CCCN1C(=O)[C@H](Cc1ccccc1)NC2=O` (some centres undefined), it took 876 nM to reach half-maximal inhibition (IC50).
On to `CC1CCCC2(C1)NC(=O)[C@H](CCCCCC(=O)NO)NC(=O)[C@H]1CCCN1C(=O)[C@H](Cc1ccccc1)NC2=O` (some centres undefined), for which the IC50 was determined as 104 nM.

The target of another test is T2, Histone deacetylase 1 (Homo sapiens, UniProt Q13547). Put plainly: Inhibition of recombinant human HDAC1 expressed in HEK293T cells using Ac-KGLGK(Ac)-MCA as substrate measured after 30 mins by fluorescence assay.
T2 sequence (Q13547 whole entry): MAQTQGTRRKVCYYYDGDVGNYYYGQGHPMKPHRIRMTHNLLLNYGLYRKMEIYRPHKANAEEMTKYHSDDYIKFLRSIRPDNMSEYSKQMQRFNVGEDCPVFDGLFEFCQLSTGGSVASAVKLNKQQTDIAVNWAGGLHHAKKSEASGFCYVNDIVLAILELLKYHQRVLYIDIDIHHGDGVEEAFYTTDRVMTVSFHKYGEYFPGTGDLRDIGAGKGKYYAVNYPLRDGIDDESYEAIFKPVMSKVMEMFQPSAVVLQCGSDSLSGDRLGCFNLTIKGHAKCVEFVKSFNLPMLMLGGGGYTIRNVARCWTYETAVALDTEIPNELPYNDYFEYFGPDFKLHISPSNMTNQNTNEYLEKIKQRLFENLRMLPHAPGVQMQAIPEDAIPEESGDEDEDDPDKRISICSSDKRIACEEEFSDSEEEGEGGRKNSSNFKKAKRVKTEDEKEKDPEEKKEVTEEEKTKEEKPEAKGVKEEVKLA
Settings: not given
For the compound `CC1CCCCC12NC(=O)[C@H](CCCCCC(=O)NO)NC(=O)[C@H]1CCCN1C(=O)[C@H](Cc1ccccc1)NC2=O` (some centres undefined), the IC50 was 10 nM.
As for `CC1CCCC2(C1)NC(=O)[C@H](CCCCCC(=O)NO)NC(=O)[C@H]1CCCN1C(=O)[C@H](Cc1ccccc1)NC2=O` (some centres undefined), the IC50 is 15 nM.

The subject of the next test is HeLa. Put plainly: cells. The settings on record: Homo sapiens, 48 h.
On to `CC1CCCCC12NC(=O)[C@H](CCCCCC(=O)NO)NC(=O)[C@H]1CCCN1C(=O)[C@H](Cc1ccccc1)NC2=O` (some centres undefined), for which the IC50 is 309 nM.
Still for that read-out and setting: to `CC1CCCC2(C1)NC(=O)[C@H](CCCCCC(=O)NO)NC(=O)[C@H]1CCCN1C(=O)[C@H](Cc1ccccc1)NC2=O` (some centres undefined) belongs 48 nM.

The target of a further test is T1, Histone deacetylase 4. Put plainly: Inhibition of recombinant human HDAC4 expressed in HEK293T cells using Ac-KGLGK(Ac)-MCA as substrate measured after 30 mins by fluorescence assay.
Settings: not given
Regarding `CC1CCCCC12NC(=O)[C@H](CCCCCC(=O)NO)NC(=O)[C@H]1CCCN1C(=O)[C@H](Cc1ccccc1)NC2=O` (some centres undefined), the IC50 amounted to 6 nM.
Same read-out and setting: to `CC1CCCC2(C1)NC(=O)[C@H](CCCCCC(=O)NO)NC(=O)[C@H]1CCCN1C(=O)[C@H](Cc1ccccc1)NC2=O` (some centres undefined) belongs 14 nM.

The next test addresses T3, Protein deacetylase HDAC6 (Mus musculus, UniProt Q9Z2V5).
T3 sequence (Q9Z2V5 whole entry): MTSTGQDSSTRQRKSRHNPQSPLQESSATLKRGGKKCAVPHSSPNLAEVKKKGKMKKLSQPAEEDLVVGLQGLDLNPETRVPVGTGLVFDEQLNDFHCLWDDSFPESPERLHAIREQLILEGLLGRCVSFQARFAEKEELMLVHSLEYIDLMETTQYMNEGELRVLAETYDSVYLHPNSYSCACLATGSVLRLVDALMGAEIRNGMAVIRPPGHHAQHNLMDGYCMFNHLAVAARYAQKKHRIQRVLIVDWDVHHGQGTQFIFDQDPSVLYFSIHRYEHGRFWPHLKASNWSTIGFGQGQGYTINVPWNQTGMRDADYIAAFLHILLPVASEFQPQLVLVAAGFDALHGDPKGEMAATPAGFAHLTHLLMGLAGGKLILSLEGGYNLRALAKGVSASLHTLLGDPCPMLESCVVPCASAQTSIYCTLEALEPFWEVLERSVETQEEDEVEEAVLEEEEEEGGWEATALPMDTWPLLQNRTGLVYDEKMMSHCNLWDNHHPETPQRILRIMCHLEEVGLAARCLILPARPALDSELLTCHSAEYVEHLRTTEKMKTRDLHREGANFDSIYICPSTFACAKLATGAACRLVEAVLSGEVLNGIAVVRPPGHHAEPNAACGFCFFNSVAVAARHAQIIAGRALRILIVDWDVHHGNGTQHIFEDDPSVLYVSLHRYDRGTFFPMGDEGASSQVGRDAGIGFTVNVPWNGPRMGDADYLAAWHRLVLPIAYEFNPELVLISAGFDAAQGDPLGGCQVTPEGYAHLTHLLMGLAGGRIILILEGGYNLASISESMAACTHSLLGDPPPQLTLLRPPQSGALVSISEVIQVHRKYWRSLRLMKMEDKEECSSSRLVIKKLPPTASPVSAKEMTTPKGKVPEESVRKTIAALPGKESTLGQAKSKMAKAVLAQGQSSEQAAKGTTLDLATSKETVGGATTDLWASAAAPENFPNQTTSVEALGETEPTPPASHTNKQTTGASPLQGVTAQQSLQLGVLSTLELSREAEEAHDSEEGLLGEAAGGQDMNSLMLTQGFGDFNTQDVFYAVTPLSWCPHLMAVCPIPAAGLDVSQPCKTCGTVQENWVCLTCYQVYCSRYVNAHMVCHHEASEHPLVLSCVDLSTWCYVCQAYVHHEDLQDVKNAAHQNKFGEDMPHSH
Put plainly: Inhibition of recombinant mouse HDAC6 expressed in HEK293T cells using Ac-KGLGK(Ac)-MCA as substrate measured after 30 mins by fluorescence assay.
Settings: not given
In the case of `CC1CCCCC12NC(=O)[C@H](CCCCCC(=O)NO)NC(=O)[C@H]1CCCN1C(=O)[C@H](Cc1ccccc1)NC2=O` (some centres undefined), the IC50 was 130 nM.
Still for that read-out and setting: next, `CC1CCCC2(C1)NC(=O)[C@H](CCCCCC(=O)NO)NC(=O)[C@H]1CCCN1C(=O)[C@H](Cc1ccccc1)NC2=O` (some centres undefined): 160 nM.

The next test has as its system MCF7. Put plainly: cells. The settings on record: Homo sapiens, MCF7, 48 h.
In the case of `CC1CCCCC12NC(=O)[C@H](CCCCCC(=O)NO)NC(=O)[C@H]1CCCN1C(=O)[C@H](Cc1ccccc1)NC2=O` (some centres undefined), the IC50 worked out at 31 nM.
Consider `CC1CCCC2(C1)NC(=O)[C@H](CCCCCC(=O)NO)NC(=O)[C@H]1CCCN1C(=O)[C@H](Cc1ccccc1)NC2=O` (some centres undefined), for which 26 nM corresponded to half-maximal inhibition (IC50).

The target of a further test is T4, Protein deacetylase HDAC6 (Homo sapiens, UniProt Q9UBN7).
T4 sequence (Q9UBN7 whole entry): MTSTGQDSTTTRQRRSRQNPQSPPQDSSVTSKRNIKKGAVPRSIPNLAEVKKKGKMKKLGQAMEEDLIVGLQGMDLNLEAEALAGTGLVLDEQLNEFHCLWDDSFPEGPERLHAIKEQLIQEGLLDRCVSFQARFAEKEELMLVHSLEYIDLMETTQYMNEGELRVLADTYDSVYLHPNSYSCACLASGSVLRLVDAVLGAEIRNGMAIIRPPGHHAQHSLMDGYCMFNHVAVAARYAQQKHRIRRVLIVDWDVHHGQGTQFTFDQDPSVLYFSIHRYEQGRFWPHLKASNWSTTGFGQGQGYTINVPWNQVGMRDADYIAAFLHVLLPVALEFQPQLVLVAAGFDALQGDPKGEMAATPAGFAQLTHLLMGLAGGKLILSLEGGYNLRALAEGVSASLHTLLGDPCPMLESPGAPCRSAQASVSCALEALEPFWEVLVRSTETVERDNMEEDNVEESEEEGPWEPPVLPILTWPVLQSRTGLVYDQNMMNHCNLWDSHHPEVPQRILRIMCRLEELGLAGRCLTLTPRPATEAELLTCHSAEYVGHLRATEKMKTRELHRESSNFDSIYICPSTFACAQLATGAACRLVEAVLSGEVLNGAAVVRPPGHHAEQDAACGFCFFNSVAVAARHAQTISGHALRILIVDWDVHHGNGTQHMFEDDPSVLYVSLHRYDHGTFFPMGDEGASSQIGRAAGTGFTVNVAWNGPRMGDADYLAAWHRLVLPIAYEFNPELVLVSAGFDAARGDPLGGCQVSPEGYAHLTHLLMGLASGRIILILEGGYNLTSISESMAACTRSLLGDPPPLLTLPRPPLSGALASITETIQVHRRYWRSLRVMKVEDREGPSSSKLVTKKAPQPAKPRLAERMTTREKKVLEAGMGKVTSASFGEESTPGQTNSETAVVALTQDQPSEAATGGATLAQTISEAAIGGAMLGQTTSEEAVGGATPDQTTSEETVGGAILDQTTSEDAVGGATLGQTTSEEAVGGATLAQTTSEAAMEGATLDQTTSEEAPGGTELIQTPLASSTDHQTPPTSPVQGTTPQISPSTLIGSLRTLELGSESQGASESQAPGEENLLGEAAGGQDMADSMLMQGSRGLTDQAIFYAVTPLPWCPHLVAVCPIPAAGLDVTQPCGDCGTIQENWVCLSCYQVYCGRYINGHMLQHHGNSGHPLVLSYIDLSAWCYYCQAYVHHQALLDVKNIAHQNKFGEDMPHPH
As to the kind of experiment: Inhibition of recombinant full-length human N-terminal GST-tagged HDAC6 expressed in baculovirus infected Sf9 insect cells using fluorescent-labelled Arg-His-Lys-Lys(Ac) as substrate measured after 2 hrs by fluorescence assay.
Settings: not given
Regarding `CCN(CC)c1ccc(C(=O)NO)cc1`, the IC50 worked out at 6280 nM.
Take `O=C(NO)c1ccc(N2CCCC2)cc1`: the half-maximal inhibitory concentration (IC50) is 540 nM.
With `Cc1c(CN(C)C)c2ccccc2n1-c1ccc(C(=O)NO)cc1`, the IC50 turned out to be 1.25 nM.

In another test the test system is MDA-MB-231. As to the kind of experiment: cells. As to conditions: Homo sapiens.
In the case of `O=C(CCCCCCC(=O)Nc1ccccc1)NO` [VORINOSTAT], the IC50 turned out to be 2140 nM.

A further test has as its target T2, Histone deacetylase 1. Put plainly: Inhibition of HDAC1 (unknown origin).
Settings: not given
For `CC(=O)SCCCCCC(NC(=O)OCc1ccccc1)C(=O)Nc1cccc2cccnc12` (centres undefined), the IC50 turned out to be 47 nM.
On the same count and under the same terms, next, `C[C@]12CC[C@@H]3c4ccc(O)cc4CC[C@H]3[C@@H]1CC[C@@]2(O)c1cn(CCCCCCCC(=O)NO)nn1`: 28 nM.
Compound `C[C@]12CC[C@@H]3c4ccc(O)cc4CC[C@H]3[C@@H]1CC[C@@]2(O)c1cn(CCCCCCC(=O)NO)nn1` displayed an IC50 of 75 nM.
The same measure, in the same setting: to `C[C@]12CC[C@@H]3c4ccc(O)cc4CC[C@H]3[C@@H]1CC[C@@]2(O)c1cn(CCCCC(=O)NO)nn1` belongs 15 nM.

A further test has as its target T2, Histone deacetylase 1. Put plainly: Inhibition of HDAC1 (unknown origin) using (FAM)-labeled acetylated peptide as substrate measured after 17 hrs by fluorescence assay.
Settings: not given
Regarding `Nc1ccccc1NC(=O)CCCCCCC(=O)Nc1cccc(-c2cn(-c3ccccc3)nn2)c1`, the IC50 was greater than 30000 nM.

The target in the next test is T5, Histone deacetylase 8 (Homo sapiens, UniProt Q9BY41).
T5 sequence (Q9BY41 whole entry): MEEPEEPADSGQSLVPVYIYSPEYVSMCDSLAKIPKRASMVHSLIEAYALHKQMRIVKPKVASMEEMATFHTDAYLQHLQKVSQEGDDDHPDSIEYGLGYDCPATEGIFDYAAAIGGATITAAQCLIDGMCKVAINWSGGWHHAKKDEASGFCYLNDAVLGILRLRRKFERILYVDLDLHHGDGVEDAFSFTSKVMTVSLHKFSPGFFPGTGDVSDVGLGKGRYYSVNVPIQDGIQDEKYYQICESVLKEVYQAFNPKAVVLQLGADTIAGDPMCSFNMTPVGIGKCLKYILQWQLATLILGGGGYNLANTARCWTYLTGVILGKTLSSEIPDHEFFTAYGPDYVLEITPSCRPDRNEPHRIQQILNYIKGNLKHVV
As to the kind of experiment: Inhibition of HDAC8 (unknown origin).
Settings: not given
Take `C[C@]12CC[C@@H]3c4ccc(O)cc4CC[C@H]3[C@@H]1CC[C@@]2(O)c1cn(CCCCCCCC(=O)NO)nn1`: the midpoint of inhibition, the IC50, lay at 450 nM.
On the same count and under the same terms, next, `C[C@]12CC[C@@H]3c4ccc(O)cc4CC[C@H]3[C@@H]1CC[C@@]2(O)c1cn(CCCCCCC(=O)NO)nn1`: 4000 nM; `C[C@]12CC[C@@H]3c4ccc(O)cc4CC[C@H]3[C@@H]1CC[C@@]2(O)c1cn(CCCCC(=O)NO)nn1`: 11000 nM.

For a further test, the target named is T4, Protein deacetylase HDAC6. As to the kind of experiment: Inhibition of HDAC6 (unknown origin).
Settings: not given
Compound `CC(=O)SCCCCCC(NC(=O)OCc1ccccc1)C(=O)Nc1cccc2cccnc12` (centres undefined) yielded an IC50 of 34 nM.
The same measure, in the same setting: to `C[C@]12CC[C@@H]3c4ccc(O)cc4CC[C@H]3[C@@H]1CC[C@@]2(O)c1cn(CCCCCCCC(=O)NO)nn1` belongs 13 nM.
The same measure, in the same setting: next, `C[C@]12CC[C@@H]3c4ccc(O)cc4CC[C@H]3[C@@H]1CC[C@@]2(O)c1cn(CCCCCCC(=O)NO)nn1`: 32 nM; `C[C@]12CC[C@@H]3c4ccc(O)cc4CC[C@H]3[C@@H]1CC[C@@]2(O)c1cn(CCCCC(=O)NO)nn1`: 8 nM.
